In brackets after ≈: the same amount, converted by molar mass. Like-named read-outs stand apart in the source and are kept apart here.
What was measured:
E. coli = assay: MIC against gram-negative bacteria; assay type: cell-based; settings: Escherichia coli, read-out: MIC
From the text: Agents Chemother. 2003, 47:1496-1502.

M. avium-intracellulare = assay: Drug susceptibility of non-tuberculous slow-growing mycobacteria, MGIT960; assay type: cell-based
M. kansasii = assay: as above; assay type: cell-based
M. abscessus = assay: MIC against non-tuberculous rapidly-growing mycobacteria, microdilution; assay type: cell-based; settings: Mycobacteroides abscessus; strain 500039/08 M. abscessus; read-out: minimal inhibitory concentration (MIC)
Protocol: (§1) Activity of apramycin was assessed in standard microdilution assays and is expressed as minimal inhibitory concentration (MIC) in μg/ml.

M. bolletii = assay: as above; assay type: cell-based; settings: Mycobacteroides abscessus, read-out: minimal inhibitory concentration (MIC)
Protocol: as §1

M. massiliense = assay: as above; assay type: cell-based; settings: Mycobacteroides abscessus, read-out: minimal inhibitory concentration (MIC)
Protocol: as §1

[1] = system: Cochlear explants from newborn mice; assay: Cochleatoxicity in vitro, hair cell loss in cochlear explants; assay type: cell-based
Protocol: FIG. 1: Cochleatoxicity in vitro
(a) Dose-response relationship of drug-induced hair cell loss in cochlear explants. Hair cell loss was quantified along the entire length of the explant and plotted against drug concentration. %=% outer hair cells missing.
Cochlear explants from newborn mice were treated with 0.5 mM aminoglycoside compound for 24 h; subsequently hair cell damage was assessed by epifluorescence microscopy.

[2] = General toxicity in guinea pigs; assay type: in vivo; settings: for observations (general toxicity): once daily for 14 days, monitored additional 14 days
From the text: Guinea pigs received a systemic application of aminoglycosides once daily in the dosing indicated in Table 9 for 14 days and were then monitored for an additional 14 days.

[3] = guinea pig
From the text: “Treshold shift” is the difference in auditory threshold before and three weeks after treatment.
Guinea pigs received a systemic application of aminoglycosides once daily in the dosing indicated for 14 days, and were allowed to rest for 14 days before post-treatment ABR was taken.

[4] = system: clinical methicillin resistant Staphylococcus aureus (MRSA) isolates; assay: MIC against clinical MRSA isolates, LB microdilution assay; settings: Staphylococcus aureus, MRSA
Protocol: Activity was assessed by determination of minimal inhibitory concentrations (MIC), as described in Pfister et al., Antimicrob. […] Cultures from single colonies were grown in LB medium and used for MIC tests in a microtiter plate format. Starting cultures contained 200 μl of bacterial cells at an optical density of 0.025 at 600 nm, and the respective drug was added in twofold series of dilution.

bacterial ribosomes = assay: Ribosomal drug susceptibility (MIC) of recombinant bacteria; set-up: MIC, bacterial ribosomes: unit not given beside the values
mitohybrid ribosomes = assay: as above; set-up: MIC, mitohybrid ribosomes: unit not given beside the values
cytohybrid ribosomes = assay: as above; set-up: MIC, cytohybrid ribosomes: unit not given beside the values

CNC1C(OC2OC(CO)C(N)C(O)C2O)OC2CC(N)C(OC3C(N)CC(N)C(O)C3O)OC2C1O (stereo not shown) [Apramycin]
MIC (E. coli; E. coli AG01, clin. isol. (Gm^S)): 16 µg/mL (≈ 29.7 µM) | MIC (E. coli; E. coli AG02, clin. isol (Gm^S)): 16 to 32 µg/mL (≈ 29.7 to 59.3 µM) | MIC (E. coli; E. coli AG03, clin. isol (Gm^R)): 16 to 32 µg/mL (≈ 29.7 to 59.3 µM) | MIC (E. coli; E. coli AG06, BM13): 4 µg/mL (≈ 7.41 µM) | MIC (E. coli; E. coli AG07, BM13/pIP135, resistance mechanism AAC(3)): 8 µg/mL (≈ 14.8 µM) | MIC (E. coli; E. coli AG08, BM13/pIP055, resistance mechanism ANT(2″)): 4 µg/mL (≈ 7.41 µM) | MIC (E. coli; E. coli AG09, AAC(6′)-1B, resistance mechanism AAC(6′)): 8 µg/mL (≈ 14.8 µM) | MIC (E. coli; E. coli AG36, HB101/pAT197, resistance mechanism ANT(4′)): 4 µg/mL (≈ 7.41 µM) | MIC (E. coli; E. coli AG37, HB101/pAG21-1, resistance mechanism APH(3′)): 4 µg/mL (≈ 7.41 µM) | Activity (resistant/susceptible) (M. avium-intracellulare; strain 182034/06 M. avium-intracellulare, 1 μg/ml): R | Activity (resistant/susceptible) (M. avium-intracellulare; strain 182034/06 M. avium-intracellulare, 4 μg/ml): S | Activity (resistant/susceptible) (M. avium-intracellulare; strain 182034/06 M. avium-intracellulare, 10 μg/ml): S | Activity (resistant/susceptible) (M. avium-intracellulare; strain 182124/07 M. avium-intracellulare, 1 μg/ml): R | Activity (resistant/susceptible) (M. avium-intracellulare; strain 182124/07 M. avium-intracellulare, 4 μg/ml): S | Activity (resistant/susceptible) (M. avium-intracellulare; strain 182124/07 M. avium-intracellulare, 10 μg/ml): S | Activity (resistant/susceptible) (M. avium-intracellulare; strain 182550/07 M. avium-intracellulare, 1 μg/ml): R | Activity (resistant/susceptible) (M. avium-intracellulare; strain 182550/07 M. avium-intracellulare, 4 μg/ml): S | Activity (resistant/susceptible) (M. avium-intracellulare; strain 182550/07 M. avium-intracellulare, 10 μg/ml): S | Activity (resistant/susceptible) (M. kansasii; strain 177227/06 M. kansasii, 1 μg/ml): R | Activity (resistant/susceptible) (M. kansasii; strain 177227/06 M. kansasii, 4 μg/ml): S | Activity (resistant/susceptible) (M. kansasii; strain 177227/06 M. kansasii, 10 μg/ml): S | Activity (resistant/susceptible) (M. kansasii; strain 180235/06 M. kansasii, 1 μg/ml): R | Activity (resistant/susceptible) (M. kansasii; strain 180235/06 M. kansasii, 4 μg/ml): S | Activity (resistant/susceptible) (M. kansasii; strain 180235/06 M. kansasii, 10 μg/ml): S | MIC (M. abscessus): 0.5 µg/mL (≈ 0.927 µM) | MIC (M. bolletii; strain 179639/10 M. bolletii): 4 µg/mL (≈ 7.41 µM) | MIC (M. bolletii; strain 181739/08 M. bolletii): 4 µg/mL (≈ 7.41 µM) | MIC (M. bolletii; strain 183177/08 M. bolletii): 2 µg/mL (≈ 3.71 µM) | MIC (M. massiliense; strain 177217/10 M. massiliense): 4 µg/mL (≈ 7.41 µM) | MIC (M. massiliense; strain 186139/07 M. massiliense): 4 µg/mL (≈ 7.41 µM) | MIC (M. massiliense; strain 500044/09 M. massiliense): 2 µg/mL (≈ 3.71 µM) | In vitro cochleatoxicity (drug-induced hair cell loss in cochlear explants, dose-response) [1]: significantly less than that of gentamicin | Hair cell count ([1]; mouse, 24 h, 0.5 mM): no hair cells missing (<5%) | inner and outer hair cells missing / lost ([1]; mouse, 24 h, 0.5 mM): < 5% | observations (general toxicity) ([2]; 152 mg/kg base (132 mg/kg gentamicin base equivalent)): normal weight gain | observations (general toxicity) ([2]; 184 mg/kg base (160 mg/kg gentamicin base equivalent)): normal weight gain | observations (general toxicity) ([2]; 217 mg/kg base (188 mg/kg gentamicin base equivalent)): normal weight gain | observations (general toxicity) ([2]; 355 mg/kg base (309 mg/kg gentamicin base equivalent)): less weight gain | Kidney histopathology, interpretation ([2]; 432 mg/kg): Mild, multifocal interstitial lymphoplasmacytic inflammation | observations (general toxicity) ([2]; 432 mg/kg base (376 mg/kg gentamicin base equivalent)): less weight gain | Kidney histopathology, renal mass affected in the sections ([2]; 432 mg/kg, lymphoplasmacytic aggregates in the renal interstitium): less than 5% | Kidney histopathology, interpretation ([2]; 649 mg/kg): Mild, multifocal tubular nephrosis | observations (general toxicity) ([2]; 649 mg/kg base (564 mg/kg gentamicin base equivalent)): less weight gain | Kidney histopathology, renal mass affected in the sections ([2]; 649 mg/kg, foci of tubular degeneration and regeneration in the superficial cortex): less than 5% | necropsy findings at the end of the experiment ([2]; one animal each at 432 and 649 mg/kg): no significant lesions or gross findings were observed | in vivo auditory response (auditory brain stem response, threshold shift at 12 kHz) [3]: substantially less affected | MIC ([4]; MRSA AG038, strain 70-26S Gm^S): 8 µg/mL (≈ 14.8 µM) | MIC ([4]; MRSA AG040, strain 87-26S Gm^S): 8 µg/mL (≈ 14.8 µM) | MIC ([4]; MRSA AG041, strain 98-25S Gm^S): 8 µg/mL (≈ 14.8 µM) | MIC ([4]; MRSA AG042, strain 101-06R Gm^R): 8 µg/mL (≈ 14.8 µM) | MIC ([4]; MRSA AG043, strain 01-08R Gm^R): 16 to 32 µg/mL (≈ 29.7 to 59.3 µM) | MIC ([4]; MRSA AG044, strain 07-12R Gm^R): 16 µg/mL (≈ 29.7 µM) | MIC ([4]; MRSA AG045, strain 08-12R Gm^R): 8 to 16 µg/mL (≈ 14.8 to 29.7 µM) | MIC ([4]; MRSA AG046, strain 12-06R Gm^R): 8 to 16 µg/mL (≈ 14.8 to 29.7 µM) | MIC ([4]; MRSA AG047, strain 18-06R Gm^R): 8 to 16 µg/mL (≈ 14.8 to 29.7 µM) | MIC ([4]; MRSA AG048, strain 20-06R Gm^R): 8 to 16 µg/mL (≈ 14.8 to 29.7 µM) | MIC ([4]; MRSA AG049, strain 23-12R Gm^R): 8 to 16 µg/mL (≈ 14.8 to 29.7 µM) | MIC ([4]; MRSA AG050, strain 31-06R Gm^R): 4 to 8 µg/mL (≈ 7.41 to 14.8 µM) | MIC ([4]; MRSA AG051, strain 36-06R Gm^R): 8 µg/mL (≈ 14.8 µM) | MIC ([4]; MRSA AG052, strain 53-14I Gm^R): 8 µg/mL (≈ 14.8 µM) | MIC ([4]; MRSA AG053, strain 56-06R Gm^R): 8 µg/mL (≈ 14.8 µM) | MIC, bacterial ribosomes (bacterial ribosomes; Table 7, 72 h incubation): 1-2 | MIC, wild type bacteria (bacterial ribosomes; Table 10): 1.0 to 2.0 µg/mL | MIC, mitohybrid ribosomes (mitohybrid ribosomes; Table 7, 72 h incubation): 1024 | MIC, bacteria with mitohybrid ribosome (mitohybrid ribosomes; Table 10): >256.0 µg/mL | MIC, cytohybrid ribosomes (cytohybrid ribosomes; Table 7, 72 h incubation): >1024 | MIC, bacteria with cytohybrid ribosome (cytohybrid ribosomes; Table 10): >256.0 µg/mL

From US9271993B2, “Treatment of bacterial infectious diseases” (priority 2010, dated 2016)
